Experimental data reported in patent US11628198B2, “Methods for prevention and treatment of acute renal injury” (Cornell University, priority 2008, dated 2023).

Legend:
Format in all cases: in vivo, rat
[1] = test system: heme oxygenase-1 (HO-1) expression; assay: 14-day UUO model: RT-PCR for HO-1
Experimental: (§1) Sprague-Dawley rats underwent unilateral ureteral ligation (UUO) with 4-0 silk suture through a midline abdominal incision under sterile conditions. Ureteral obstruction was carried out by ligating the left ureter at the end of lower ureter, just above the ureterovesical junction.
(§2) SS-31 (1 mg/kg or 3 mg/kg; n=8) was administered intraperitoneally, one day prior to UUO and continuing for 14 days. A separate group of animals was given saline, as a vehicle control (n=16).
Polymerase Chain Reaction Analysis: PCR for heme oxygenase-1 (HO-1) isolated from kidneys was performed as follows. Rat kidneys were harvested and were kept at −80° C. until use. Total RNA was extracted using the Trizol®-Chloroform extraction procedure. mRNA was purified using the Oligotex mRNA extraction kit (Qiagen, Valencia, Calif.) according to manufacturer's instructions. mRNA concentration and purity were determined by measuring absorbance at 260 nm. RT-PCR was preformed using Qiagen One-step PCR kit (Qiagen, Valencia, Calif.). PCR was performed in an automated thermal cycler ThermoHybrid, PX2 with an initial activation step for 15 min at 95° C. followed by 35 cycles of denaturation for 45 s at 94° C., annealing for 30 s at 60° C., extension for 60 s at 72° C. […] Bands on gels were visualized by ethidium bromide staining and analyzed using Image J densitometric analysis software. […]

renal mitochondria = assay: I/R model: respiration of isolated renal mitochondria; details: after 45 min ischemia, pretreatment
Experimental: Results. The effects of the aromatic-cationic peptides of the invention on a model of ARI caused by ischemia-reperfusion were investigated. Renal mitochondria were isolated in accordance with the procedures described above and oxygen consumption was measured.
State 3 respiration was initiated with the addition of ADP.

[2] = test system: contrast induced nephropathy in diabetic animal model; assay: CIN in diabetic (HFD/STZ) rats with iohexol, Experiment 2
Experimental: In this experiment, 30 SD rats were fed with high fat diet for 6 weeks, followed by the injection with low dose streptozotocin (30 mg/kg). After 9 more weeks, the rats were used in the contrast induced nephropathy study. The animals were divided into 2 groups with the doses, dosing schedules and study protocol as follows. On day 0, the weight of the animals was determined and glucose and serum samples were collected. On day 1, Scr was assayed and spot urine collection performed. On days 2 and 3, 3 mg/kg SS-31 (Group 1) or a vehicle (Group 2) was administered s.c. 30 min prior to the dye injection (6 mL/kg i.v. tail vein). SS-31 (Group 1) or PBS (Group 2) administration was repeated at 2 h, 1 day, 2, days, 3 days, 4 days, and 5 day post-dye administration. On day 8, serum and urine samples were collected and the rats were euthaniszed to harvest kidneys and vital organs.
Renal function: Renal function was assessed by determining serum and urinary creatinine using Jiancheng Cr kit (Nanjing, P.R.C) at baseline, 24 h, 3 day and 6 days following contrast dye (Iohexol) administration. The creatinine clearance was calculated based on the Scr, Ucr and Urinary volume. Samples were analyzed by students t-test and differences were considered significant at p<0.05.

[3] = test system: ARI caused by ureteral obstruction (UUO); assay: 14-day UUO model: immunohistochemistry and TUNEL
Experimental: as §1, §2
Immunohistochemical Analysis: Immunohistochemical staining for macrophages was carried out using a monoclonal antibody to ED-1 (Serotec) as previously described. Macrophages were counted in 10 high-power fields (×400) by two different independent investigators in a blinded fashion. The TUNEL assay was performed as described in Example 1. The presence of fibroblasts was examined using immunohistochemistry, as described in Example 1. The antibody utilized was DAKO #S100-A4 (1:100 dilution). The S100-A4 antigen is also known as FSP-1 (fibroblast specific protein). Antigen was retrieved by incubating cells with Proteinase K for 20 min in an oven. The remaining immunoperoxidase protocol was carried out according to routine procedures. Staining for S100-A4 was found in spindle-shaped interstitial cells, and also in cells which were round, and were identified as inflammatory cells by the pathologist. Only spindle-shaped cells were included in the counts. […] 8-OH dG staining was carried using Proteinase K for antigen retrieval. The antibody used was from the Japan Institute Control of Aging, and was used at a dilution of 1:200-1:500.

[4] = test system: CIN in glycerol-induced rhabdomyolysis animal model; assay: CIN in glycerol-induced rhabdomyolysis model, Experiment 2
Experimental: SD rats with body weight of 300-400 grams were dehydrated for 24 h followed by i.m. injection with 25% glycerol solution (v/v) at the dose of 10 ml/kg. Twenty-four hours later, the rats were grouped and subjected to contrast induced nephropathy study protocol. Sixteen SD rats with body weight of 300-350 g were randomized into three groups with the doses, dosing schedules and study protocol presented in FIG. 23. The effects of SS-31 on ARI can be examined by comparing the renal functions in animals from group A with that from group B. Samples were analyzed by Student's t-test and differences were considered significant at p<0.05.
Renal function: Renal function was assessed by determining serum and urinary creatinine using Jiancheng Cr kit (Nanjing, P.R.C) at baseline, 24 h after dehydration and 48 h post the contrast dye administration. The creatinine clearance was calculated based on the Scr, Ucr and urinary volume. Urinary protein concentration was determined by Bradford Protein Assay kit (Sigma, St. Louis, Mo.).

With D-Arg-2′6′Dmt-Lys-Phe-NH2 [SS-31] the “HO-1 expression in the obstructed kidney” value [1] was “decreased HO-1 expression”, the “renal mitochondrial oxygen consumption (state 3 respiration)” value (renal mitochondria) was “significantly improved oxygen consumption” and the GFR ([2]; Baseline) was 159.2±25.1 μl/min/100 g. It also gave a Scr ([2]; Baseline) of 214.6 ± 15.4 µmol/L, a U protein ([2]; Baseline) of 5.4 ± 1.1 mg/4 h and a U vol ([2]; Baseline) of 18.1 ± 4.4 mL. It also gave a Ucr ([2]; Baseline) of 4182.5 ± 699.8 µmol/L, a GFR ([2]; T1 (24 h post dye)) of 159.9±9 μl/min/100 g and a Scr ([2]; T1 (24 h post dye)) of 168.6 ± 21.9 µmol/L. For the same substance, the U protein ([2]; T1 (24 h post dye)) was 3.6 ± 0.8 mg/4 h, the U vol ([2]; T1 (24 h post dye)) was 15.2 ± 4.3 mL and the Ucr ([2]; T1 (24 h post dye)) was 4488.9 ± 861.6 µmol/L. The GFR ([2]; T2 (3 day post dye)) was 100.9 ± 16.7 μl/min/100 g, the Scr ([2]; T2 (3 day post dye)) was 236.2 ± 26.6 µmol/L and the U protein ([2]; T2 (3 day post dye)) was 4.3 ± 0.9 mg/4 h. The U vol ([2]; T2 (3 day post dye)) was 12.8 ± 3.6 mL, the Ucr ([2]; T2 (3 day post dye)) was 4744.8 ± 1350.6 µmol/L and the GFR ([2]; T3 (6 days post dye)) was 121.5 ± 9.1 μl/min/100 g. The Scr ([2]; T3 (6 days post dye)) was 175.3 ± 25.9 µmol/L, the U protein ([2]; T3 (6 days post dye)) was 2.4 ± 0.4 mg/4 h and the U vol ([2]; T3 (6 days post dye)) was 9.6 ± 2.3 mL. The Ucr ([2]; T3 (6 days post dye)) was 4030.7 ± 620 µmol/L, the “fibroblast infiltration (FSP-1) in the OK” value ([3]; 1 mg/kg) was 43.4 % of control and the “tubular apoptosis (TUNEL)” value ([3]; 1 mg/kg) was 5.1±0.5 cells per HPF. The “tubular proliferation (PCNA), increase” value ([3]; 1 mg/kg) was 2 fold, the “fibroblast infiltration (FSP-1) in the OK” value ([3]; 3 mg/kg) was 28.0 % of the untreated OK and the “renal tubular apoptosis (TUNEL)” value ([3]; 3 mg/kg) was 3.0±0.3 apoptotic cells/HPF. The “tubular proliferation (PCNA), increase” value ([3]; 3 mg/kg) was 3.5 fold, the “macrophage infiltration into the OK (ED-1)” value ([3]; 1 and 3 mg/kg) was “significantly decreased macrophage infiltration” and the “8-OH dG positive cells/HPF” value ([3]; obstructed kidney) was “significantly reduced”. The “reduction of creatinine clearance” value ([4]; 48 h post dye) was 13%, the “24 h urinary protein level” value ([4]; T0 (24 h post glycerin), no peptide yet) was 50.2 ± 8.6 mg and the “24 h urinary protein level” value ([4]; T1 (48 h post glycerin and 24 hrs post dye)) was 39.5 ± 3.5 mg. The “24 h urinary protein level” value ([4]; Tb (baseline), no peptide yet) was 15.5 ± 1.5 mg and the “PAS staining of kidney” value ([4]; glycerin, dye) was “intact brush borders, normal glomeruli and minimum protein cast in the tubular cells”.
